This test relates to diabetic leg ulcer. Briefly: Case report: treatment of a diabetic leg ulcer. Type of test: in vivo, human. The text has this: FIG. 1-6 are a series of 6 pictures taken sequentially after treatment of a leg ulcer, which had persisted for over 6 months without healing, using the dry dressing described herein that contained human cellular fibronectin (cFN).
The cFN dressing was held on with either a 4×4 sponge and tape or with a BAND-AID™ (adhesive bandage).
A few months after the lesion occurred, a dermatologist obtained a biopsy sample, and the ulcer became infected, resulting in a larger lesion that was greatly inflamed. The lesion was treated with Avelox™. It appeared to heal in a few months, when the patient removed what appeared to be dead skin. The lesion opened again, and the patient treated it with Neosporin, Iodine, and Merthiolate. The dermatologist took a swab of the lesion. After the patient used the Bactro-Ban (Muciprocin) recommended by the dermatologist for two weeks, the wound became worse so the patient sealed it with Merthiolate. A bleeding lesion the size of a nickel persisted. The patient began treatment with cFN wound dressing of Example 2 about two weeks later, changing the dressing every 48 hours except for the first day. (The first change was at 24 hours). For the first 4 days, the material was fixed to the wound with a 4×4 gauze pad and an ACE bandage, then with a Band-Aid. […]

As for `C/C(=C\C(=O)OCCCCCCCCC(=O)O)C[C@@H]1OC[C@H](C[C@@H]2O[C@H]2[C@@H](C)[C@H](C)O)[C@@H](O)[C@H]1O` [Bactro-Ban, Muciprocin], under “FIG. 1, after wound was treated for two weeks”, the lesion size is 12-15 mm. Also, for the setting “used for two weeks”, the wound outcome is “became worse”.

(Values after patent US8377468B2, “Dry wound dressing and drug delivery system” (Rexaderm, Inc., priority 2006, dated 2013).)
